Data as given in patent US7446195B2, “High affinity thiophene-based and furan-based kinase ligands” (Schering Corporation, priority 2005, dated 2008).

What follows are molecules tested against CDK-2 (Homo sapiens, UniProt P24941) (assay: CDK-2 inhibition (Table 1; fluorescence polarization displacement assay)). Conditions: inhibitory effectiveness toward CDK-2.
Format: binding
Protocol: The affinity of lead inhibitors binding to CDK-2 and CDK-2/cyclin A were determined by measuring a Ki value using a fluorescence polarization displacement assay. The deacetylated form of compound BMS-250595 was reacted with Alexa Fluor 647 to generate a compound (BMS-Alexa Fluor647) that bound to both proteins and provided a signal for fluorescence polarization displacement. Binding assays were performed in a 384 well Costar NBS coated plate. A total volume of […] contained concentrations of CDK-2 or CDK-2/cyclin A at […], respectively. The concentration of BMS-Alexa Fluor647 was 50 nM. Serial dilutions of compounds were added to 12 wells. The final buffer concentration was 10 mM Hepes, pH 7.5, 150 mM NaCl, and 1 mM DTT. Samples were incubated at room temperature for 15 minutes and then read in an Analyst HT instrument using an excitation and emission wavelength of 580 and 680 nm, respectively. The […] curve fitting tool described by Zhang et al., 2004 (Zhang R., Mayhood T., Lipari P., Wang Y., Durkin D., Syto R., Gesell J., McNemar C., and Windsor W., Analytical Biochemistry 331 (2004) 138-146)
With `O=C(NCc1ccccc1)c1ccc(C(=O)Nc2ccc(-n3cncn3)cc2)s1` [Compound 63] the IC50 was 1 to 40 µM. For `COc1ccc(NC(=O)c2ccc(C(=O)Nc3ccc(N(C)C)cc3)s2)c(C)c1` [Compound 124], the IC50 was no less than 40 µM. For `COc1ccc(NC(=O)c2ccc(C(=O)Nc3ccc(-n4cncn4)cc3)s2)c(C)c1` [Compound 13], the IC50 was no more than 1 µM. In the case of `COc1ccc(NC(=O)c2ccc(C(=O)Nc3ccc(-n4cncn4)cc3)s2)c(C(=O)O)c1` [Compound 79], the IC50 is reported as 1 to 40 µM. `O=C(Nc1ccc(-n2cncn2)cc1)c1ccc(NC(=O)C2CCCCC2)s1` [Compound 21] gave an IC50 of no more than 1 µM. For `Cc1cc(N[C@H]2CCNC2)ccc1NC(=O)c1ccc(C(=O)Nc2ccc(-n3cncn3)cc2)s1` [Compound 38], the IC50 was no more than 1 µM. `Cn1nc(-c2ccccc2)cc1NC(=O)c1ccc(C(=O)Nc2ccc(-n3cncn3)cc2)s1` [Compound 66] showed an IC50 of 1 to 40 µM. Work on `O=C(Nc1ccc(-n2cncn2)cc1)c1ccc(C(=O)Nc2cccc(Cl)c2)s1` [Compound 54] yielded an IC50 of 1 to 40 µM. `Cc1cc(CN2CCOCC2)ccc1NC(=O)c1ccc(C(=O)Nc2ccc(-n3cncn3)cc2)s1` [Compound 16] gave an IC50 of no more than 1 µM. `COc1ccc(NC(=O)c2ccc(C(=O)Nc3cccc(-c4cnco4)c3)s2)c(C)c1` [Compound 134] gave an IC50 of no less than 40 µM. `Cn1c(NC(=O)c2ccc(C(=O)Nc3ccc(-n4cncn4)cc3)s2)nc2ccccc21` [Compound 159] was tested, and the IC50 was no less than 40 µM. With `O=C(Nc1ccc(-n2cncn2)cc1)c1ccc(C(=O)Nc2ccccc2Cl)s1` [Compound 165] the IC50 was no less than 40 µM. `O=C(Nc1ccc(-n2cncn2)cc1)c1ccc(C(=O)Nc2cc(F)ccc2F)s1` [Compound 166] gave an IC50 of no less than 40 µM. Work on `O=C(NCc1cccnc1)c1ccc(C(=O)Nc2ccc(-n3cncn3)cc2)s1` [Compound 99] yielded an IC50 of no less than 40 µM. `O=C(Nc1ccc(-n2cncn2)c(F)c1)c1ccc(C(=O)Nc2ccccc2Oc2ccccc2)s1` [Compound 199] gave an IC50 of no less than 40 µM. `Cc1cc(N[C@H]2CCNC2)ccc1NC(=O)c1ccc(C(=O)Nc2ccc(-n3cncn3)c(F)c2)s1` [Compound 15] was tested, and the IC50 was no more than 1 µM. `COc1ccc(NC(=O)c2ccc(C(=O)Nc3ccc(-n4cncn4)cc3)o2)c(C)c1` [Compound 26] gave an IC50 of no more than 1 µM. In the case of `O=C(Nc1ccc(-n2cncn2)cc1)c1ccc(C(=O)Nc2ccc3c(c2)C(=O)OC3)s1` [Compound 160], the IC50 is reported as no less than 40 µM. `COc1ccc(NC(=O)c2ccc(C(=O)Nc3ccc(-n4cncn4)c(F)c3)s2)c(C)c1` [Compound 17] showed an IC50 of no more than 1 µM. For `COc1ccc(C(=O)Nc2ccc(C(=O)Nc3ccc(-n4cncn4)cc3)o2)cc1` [Compound 181], the IC50 was no less than 40 µM. Work on `CNCc1ccc(NC(=O)c2ccc(C(=O)Nc3ccc(-n4cncn4)cc3)s2)c(C)c1` [Compound 51] yielded an IC50 of 1 to 40 µM. Molecule `O=C(NCCN1CCCCC1)c1ccc(C(=O)Nc2ccc(-n3cncn3)cc2)s1` [Compound 144] has an IC50 of no less than 40 µM. With `Cc1cc(N2CCNCC2)ccc1NC(=O)c1ccc(C(=O)Nc2ccc(-n3cncn3)cc2)s1` [Compound 30] the IC50 was no more than 1 µM. `COc1ccc(NC(=O)c2ccc(C(=O)Nc3ccc(N4CCNCC4)cc3)s2)c(C)c1` [Compound 122] was tested, and the IC50 was no less than 40 µM. `COc1ccc(C(=O)Nc2ccc(C(=O)Nc3ccc(-n4ccnc4)cc3)o2)c(C)c1` [Compound 193] gave an IC50 of no less than 40 µM. Molecule `CN(C)CCCNC(=O)c1ccc(C(=O)Nc2ccc(-n3cncn3)cc2)s1` [Compound 140] has an IC50 of no less than 40 µM. In the case of `COc1ccc(NC(=O)c2ccc(C(=O)Nc3ccc4sc(SC)nc4c3)s2)c(C)c1` [Compound 174], the IC50 is reported as no less than 40 µM. `COc1ccc(Cl)cc1NC(=O)c1ccc(C(=O)Nc2ccc(-n3cncn3)cc2)s1` [Compound 62] gave an IC50 of 1 to 40 µM. In the case of `O=C(Nc1ccccc1)c1ccc(C(=O)Nc2ccc(-n3cncn3)cc2)s1` [Compound 89], the IC50 is reported as no less than 40 µM. With `COc1ccc(NCc2ccc(C(=O)Nc3ccc(-n4cncn4)cc3)o2)c(C)c1` [Compound 198] the IC50 was no less than 40 µM. `COc1ccc(NC(=O)c2ccc(C(=O)Nc3ccc(-n4cncn4)c(F)c3)o2)c(C)c1` [Compound 5] gave an IC50 of no more than 1 µM. Work on `O=C(Nc1ccc(-n2cncn2)c(F)c1)c1ccc(C(=O)Nc2ccccc2C(F)(F)F)s1` [Compound 46] yielded an IC50 of 1 to 40 µM. `COc1ccc(C(=O)Nc2ccc(C(=O)Nc3ccc(-n4cncn4)cc3)s2)cc1` [Compound 42] gave an IC50 of 1 to 40 µM. Molecule `O=C(Nc1ccc(-n2cncn2)cc1)c1ccc(C(=O)NC2Cc3ccccc3C2)s1` [Compound 114] has an IC50 of no less than 40 µM. For `Cc1cc(NCCN(C)C)ccc1NC(=O)c1ccc(C(=O)Nc2ccc(-n3cncn3)cc2)s1` [Compound 44], the IC50 was 1 to 40 µM. `Cc1ccccc1C(=O)Nc1ccc(C(=O)Nc2ccc(-n3cncn3)cc2)s1` [Compound 34] showed an IC50 of no more than 1 µM. In the case of `C[C@@H](NC(=O)c1ccc(C(=O)Nc2ccc(-n3cncn3)cc2)s1)C1CCCCC1` [Compound 112], the IC50 is reported as no less than 40 µM. Work on `COc1ccc(NC(=O)c2ccc(C(=O)Nc3ccc(-c4nc[nH]n4)c(F)c3)o2)c(C)c1` [Compound 7] yielded an IC50 of no more than 1 µM. `COc1ccc(NC(=O)c2ccc(C(=O)Nc3ccc(F)cc3-n3cncn3)s2)c(C)c1` [Compound 65] gave an IC50 of 1 to 40 µM. `COc1ccc(N(C)C(=O)c2ccc(C(=O)Nc3ccc(-n4cncn4)cc3)s2)cc1` [Compound 68] was tested, and the IC50 was 1 to 40 µM. Work on `COc1ccc(NC(=O)c2ccc(C(=O)Nc3ccc(-n4cncn4)cc3)s2)cc1OC` [Compound 151] yielded an IC50 of no less than 40 µM. Molecule `COc1ccc(NC(=O)c2ccc(C(=O)Nc3ccc(-c4nnc[nH]4)cc3)s2)c(C)c1` [Compound 25] has an IC50 of no more than 1 µM. In the case of `C[C@H](O)CNC(=O)c1ccc(C(=O)Nc2ccc(-n3cncn3)cc2)s1` [Compound 135], the IC50 is reported as no less than 40 µM. `Cc1ccsc1CNC(=O)c1ccc(C(=O)Nc2ccc(-n3cncn3)cc2)s1` [Compound 55] gave an IC50 of 1 to 40 µM. For `Cc1cc(N2CCOCC2)ccc1NC(=O)c1ccc(C(=O)Nc2ccc(-n3cncn3)cc2)s1` [Compound 3], the IC50 was no more than 1 µM. `O=C(Nc1ccc(-n2cncn2)cc1)c1ccc(C(=O)NC2CC2)s1` [Compound 80] showed an IC50 of no less than 40 µM. Work on `CC(C)CNC(=O)c1ccc(C(=O)Nc2ccc(-n3cncn3)cc2)s1` [Compound 83] yielded an IC50 of no less than 40 µM. For `Cc1ccccc1NC(=O)c1ccc(C(=O)Nc2ccc(-n3cncn3)cc2)o1` [Compound 31], the IC50 was no more than 1 µM. With `Cc1cc(O)ccc1NC(=O)c1ccc(C(=O)Nc2ccc(-n3cncn3)cc2)s1` [Compound 33] the IC50 was no more than 1 µM. `COc1ccc(NC(=O)c2ccc(C(=O)Nc3ccc(-n4cncn4)cc3)s2)cc1O` [Compound 167] gave an IC50 of no less than 40 µM. Molecule `O=C(Nc1ccc(-n2cncn2)c(F)c1)c1ccc(C(=O)Nc2ccccc2OC2CCCCC2)s1` [Compound 203] has an IC50 of no less than 40 µM. With `Cc1cc(NC(=O)c2ccc(C(=O)Nc3ccc(-n4cncn4)cc3)s2)ccc1F` [Compound 142] the IC50 was no less than 40 µM. Work on `COc1ccc(C(=O)Nc2ccc(C(=O)N3CCC(c4ccncc4)C3)s2)c(C)c1` (stereo not shown) [Compound 189] yielded an IC50 of no less than 40 µM. With `C[C@@H](NC(=O)c1ccc(C(=O)Nc2ccc(-n3cncn3)c(F)c2)o1)C1CCCCC1` [Compound 43] the IC50 was 1 to 40 µM. With `Cn1nc(-c2ccc(Cl)cc2)cc1NC(=O)c1ccc(C(=O)Nc2ccc(-n3cncn3)cc2)s1` [Compound 196] the IC50 was no less than 40 µM. In the case of `O=C(NCc1ccccn1)c1ccc(C(=O)Nc2ccc(-n3cncn3)cc2)s1` [Compound 97], the IC50 is reported as no less than 40 µM. `COc1ccc(NC(=O)c2ccc(C(=O)Nc3ccc4nccnc4c3)s2)c(C)c1` [Compound 172] gave an IC50 of no less than 40 µM. With `COc1ccc(NC(=O)c2ccc(C(=O)Nc3ccc(-c4csnn4)cc3)s2)c(C)c1` [Compound 127] the IC50 was no less than 40 µM. `CN1CCN(C(=O)c2ccc(C(=O)Nc3ccc(-n4cncn4)cc3)s2)CC1` [Compound 137] gave an IC50 of no less than 40 µM. Molecule `COc1ccccc1NC(=O)c1ccc(C(=O)Nc2ccc(-n3cncn3)cc2)s1` [Compound 110] has an IC50 of no less than 40 µM. `Cc1cc(Cn2ccnc2)ccc1NC(=O)c1ccc(C(=O)Nc2ccc(-n3cncn3)c(F)c2)s1` [Compound 10] gave an IC50 of no more than 1 µM. Molecule `O=C(Nc1ccc(-n2cncn2)cc1)c1ccc(C(=O)NC2CCC2)s1` [Compound 82] has an IC50 of no less than 40 µM. `O=C(Nc1ccc(-n2cncn2)c(F)c1)c1ccc(C(=O)Nc2ccccc2OCc2ccncc2)s1` [Compound 202] showed an IC50 of no less than 40 µM. Work on `O=C(Nc1ccc(-n2cncn2)c(F)c1)c1ccc(C(=O)Nc2ccccc2-c2ccccc2)s1` [Compound 77] yielded an IC50 of 1 to 40 µM.
